1 compound from publication PMC3993903 (Molecular pharmaceutics, 2014) can be followed below.

Holding throughout (assay type): cell-based, human
Series [1] relates to drug-resistant cervical cancer cells KB-V1. The experiment in a line: Cellular uptake by KB-V1 cells. To be noted: 5 µM, absence or presence of equal molar C8-Tat (5 µM), flow cytometry. Background: Flow cytometry measures light scatter and fluorescence of single cells or particles in a stream.
The next series concerns KB-3-1 cells. The experiment in a line: Cytotoxicity. As to conditions: 2 h treatment with 5 or 15 µM, further 46 h in drug-free medium, SRB, mean ± s.d. n = 3.
The next series relates to KB-V1 cells. The experiment in a line: Cytotoxicity. As to conditions: 2 h treatment with 5 or 15 µM, further 46 h in drug-free medium, SRB, mean ± s.d. n = 3.

SMILES strings stand for the structures.

Regarding `COc1cccc2c1C(=O)c1c(O)c3c(c(O)c1C2=O)C[C@@](O)(C(=O)CO)C[C@@H]3O[C@H]1C[C@H](N)[C@H](O)[C@H](C)O1` [Dox, doxorubicin], the “intracellular accumulation with or without C8-Tat treatment” value in series [1] is “almost identical”. In addition, the “short-term cytotoxicity (cell viability)” value with KB-3-1 cells is recorded as “toxicity toward drug-sensitive cells”; in the series on KB-V1 cells, “not on drug-resistant cells”.
